Reference: patent publication US12479843B2, “Spiro ring-containing quinazoline compounds” (WIGEN BIOMEDICINE TECHNOLOGY (SHANGHAI) CO., LTD., priority 2019, dated 2025)

What was measured:
pERK level in H358 cells = experiment: pERK and ERK protein content assay in H358 cells (ELISA); assay type: cell-based; conditions: Homo sapiens, NCI-H358, compound 1 μM, 24 h, pERK/ERK ratio compared with DMSO group, read-out: Inhibition rate (%) of pERK level
In short: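 Percent inhibition of pERK relative to DMSO, from the ELISA pERK/ERK ratio in lysed H358 cells. Compound applied at 1 μM for 24 h after one day of growth.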

H358 cells = experiment: Antiproliferative activity against H358 cells (Cell Titer Glow, ultra-low attachment plate); assay type: cell-based; conditions: Homo sapiens, NCI-H358, 72 h, 96-well ultra-low attachment plate, three days after addition of compound, Cell Titer Glow
Experimental: 2500 H358 cells were seeded in a 96-well ultra-low attachment plate (corning, 7007). After one day of growth, a serially diluted compound (a maximum concentration of 5 μM, 5-fold dilution, a total of five doses) was added. Three days after the addition of the compound, Cell Titer Glow (Promega, G9681) was added to evaluate pellet growth, and the IC50 value was calculated.

| SMILES | inhibition at 1 µM (pERK level in H358 cells) [%] | IC50 (H358 cells) [nM] |
| --- | --- | --- |
| C=CC(=O)N1CC2(CCN(c3nc(N4CC5(COC5)C4)nc4c(OCC(F)(F)F)c(-c5c(C)ccc6[nH]ncc56)c(C5CC5)cc34)CC2)C1 [Compound 67] | 50 to 90 | 300 to 1000 |
| C=CC(=O)N1CC2(CCN(c3nc(N4CC(N5CC[C@H](C)C5)C4)nc4c(OCC(F)(F)F)c(-c5c(C)ccc6[nH]ncc56)c(C=C)cc34)CC2)C1 [Compound 339] | > 90 | < 300 |
| C=C(F)C(=O)N1CC2(CCN(c3nc(OC4CCN(C)CC4)nc4c(OCC(F)(F)F)c(-c5c(C)ccc6[nH]ncc56)c(C5CC5)cc34)CC2)C1 [Compound 61] | > 90 | < 300 |
| C=CC(=O)N1CC2(CCN(c3nc(N4CC5(CC(N6CC[C@@H](C)C6)C5)C4)nc4c(OCC(F)(F)F)c(-c5c(C)ccc6[nH]ncc56)c(C5CC5)cc34)CC2)C1 [Compound 293] | > 90 | < 300 |
| C=CC(=O)N1CC2(CCN(c3nc(N4CC[C@H](N5CC(F)(F)C5)C4)nc4c(OCC(F)(F)F)c(-c5c(C)ccc6[nH]ncc56)c(C5CC5)cc34)CC2)C1 [Compound 205] | 50 to 90 | 300 to 1000 |
| C=CC(=O)N1CC2(CCN(c3nc(N4CC[C@@H](N5CC[C@@H](OC)C5)C4)nc4c(OCC(F)(F)F)c(-c5c(C)ccc6[nH]ncc56)c(C5CC5)cc34)CC2)C1 [Compound 198] | > 90 | < 300 |
| C=CC(=O)N1CC2(CCN(c3nc(N(C)CCN4CC(OC)C4)nc4c(OCC(F)(F)F)c(-c5c(C)ccc6[nH]ncc56)c(C5CC5)cc34)CC2)C1 [Compound 230] | 50 to 90 | 300 to 1000 |
| C=CC(=O)N1CC2(CCN(c3nc(N4CC(N5CCC[C@H]5CO)C4)nc4c(OCC(F)(F)F)c(-c5c(C)ccc6[nH]ncc56)c(C5CC5)cc34)CC2)C1 [Compound 252] | > 90 | < 300 |
| C=CC(=O)N1CC2(CCN(c3nc(N4CC5(CC(O)C5)C4)nc4c(OCC(F)(F)F)c(-c5c(C)ccc6[nH]ncc56)c(C5CC5)cc34)CC2)C1 [Compound 282] | > 90 | < 300 |
| C=CC(=O)N1CC2(CCN(c3nc(N4CC5(CCN(CCCOC)CC5)C4)nc4c(OCC(F)(F)F)c(-c5c(C)ccc6[nH]ncc56)c(C5CC5)cc34)CC2)C1 [Compound 95] | > 90 | < 300 |
| C=CC(=O)N1CC2(CCN(c3nc(N4CC(N5CCC5)C4)nc4c(OCC(F)(F)F)c(-c5c(C)ccc6[nH]ncc56)c(C5(C)CC5)cc34)CC2)C1 [Compound 322] | > 90 | < 300 |
| C=CC(=O)N1CC2(CCN(c3nc(N4CC(N5C[C@H](O)C[C@H]5C)C4)nc4c(OCC(F)(F)F)c(-c5c(C)ccc6[nH]ncc56)c(C5CC5)cc34)CC2)C1 [Compound 260] | > 90 | < 300 |
| C=CC(=O)N1CC2(CCN(c3nc(OC4CCC5(CC4)CN(C)C5)nc4c(OCC(F)(F)F)c(-c5c(C)ccc6[nH]ncc56)c(C5CC5)cc34)CC2)C1 [Compound 135] | 50 to 90 | 300 to 1000 |
| C=CC(=O)N1CC2(CCN(c3nc(N4CC5(CCN(CC(F)(F)F)CC5)C4)nc4c(OCC(F)(F)F)c(-c5c(C)ccc6[nH]ncc56)c(C5CC5)cc34)CC2)C1 [Compound 85] | > 90 | 300 to 1000 |
| C=C(F)C(=O)N1CC2(CCN(c3nc(O[C@H]4CCN(C)C4)nc4c(OCC(F)(F)F)c(-c5c(C)ccc6[nH]ncc56)c(C5CC5)cc34)CC2)C1 [Compound 64] | 50 to 90 | 300 to 1000 |
| C=CC(=O)N1CC2(CCN(c3nc(N4CC(N5CC(OC)C5)C4)nc4c(OCC(F)(F)F)c(-c5c(C)ccc6[nH]ncc56)c(C5CC5)cc34)CC2)C1 [Compound 144] | > 90 | < 300 |
| C=CC(=O)N1CC2(CCN(c3nc(N4CC[C@H](N5CC[C@H](F)C5)C4)nc4c(OCC(F)(F)F)c(-c5c(C)ccc6[nH]ncc56)c(C5CC5)cc34)CC2)C1 [Compound 191] | > 90 | < 300 |
| C=C(F)C(=O)N1CC2(CCN(c3nc(OC4CCN(CCOC)CC4)nc4c(OCC(F)(F)F)c(-c5c(C)ccc6cc[nH]c(=O)c56)c(C5CC5)cc34)CC2)C1 [Compound 42] | > 90 | 300 to 1000 |
| C=CC(=O)N1CC2(CCN(c3nc(O[C@H]4CCS(=O)(=O)C[C@@H]4N(C)C)nc4c(OCC(F)(F)F)c(-c5c(C)ccc6[nH]ncc56)c(C5CC5)cc34)CC2)C1 [Compound 319] | > 90 | < 300 |
| C=CC(=O)N1CC2(CCN(c3nc(N4CC5(CCS(=O)(=O)CC5)C4)nc4c(OCC(F)(F)F)c(-c5c(C)ccc6[nH]ncc56)c(C5CC5)cc34)CC2)C1 [Compound 307] | > 90 | < 300 |
| C=C(F)C(=O)N1CC2(CCN(c3nc(N4CCC5(CCN(CCOC)CC5)C4)nc4c(OCC(F)(F)F)c(-c5c(C)ccc6[nH]ncc56)c(C5CC5)cc34)CC2)C1 [Compound 102] | > 90 | < 300 |

| SMILES | inhibition at 1 µM (pERK level in H358 cells) [%] | IC50 (H358 cells) [nM] |
| --- | --- | --- |
| C=CC(=O)N1CC2(CCN(c3nc(N4CC5(CCN(CCOC)C5)C4)nc4c(OCC(F)(F)F)c(-c5c(C)ccc6[nH]ncc56)c(C5CC5)cc34)CC2)C1 [Compound 75] | > 90 | < 300 |
| C=CC(=O)N1CC2(CCN(c3nc(N4CC(N5CC[C@@H](C#N)C5)C4)nc4c(OCC(F)(F)F)c(-c5c(C)ccc6[nH]ncc56)c(C5CC5)cc34)CC2)C1 [Compound 258] | > 90 | 300 to 1000 |
| C=CC(=O)N1CC2(CCN(c3nc(N4CC5(C4)CS(=O)(=O)C5)nc4c(OCC(F)(F)F)c(-c5c(C)ccc6[nH]ncc56)c(C5CC5)cc34)CC2)C1 [Compound 306] | > 90 | < 300 |
| C=CC(=O)N1CC2(CCN(c3nc(N4CC(N5CC[C@H](C)C5)C4)nc4c(OCC(F)(F)F)c(-c5c(C)ccc6[nH]ncc56)c(C5CC5)cc34)CC2)C1 [Compound 247] | > 90 | < 300 |
| C=C(F)C(=O)N1CC2(CCN(c3nc(OC4CCN(CCOC)CC4)nc4c(OCC(F)(F)F)c(-c5c(N)c(Cl)cc(Cl)c5F)c(C5CC5)cc34)CC2)C1 [Compound 50] | > 90 | < 300 |
| C=CC(=O)N1CC2(CCN(c3nc(OC4CCN(CCOC)CC4)nc4c(OCC(F)(F)F)c(-c5ccccc5F)c(C5CC5)cc34)CC2)C1 [Compound 51] | > 90 | < 300 |
| C=CC(=O)N1CC2(CCN(c3nc(O[C@@H]4C[C@@H]5C[C@H]4CS5(=O)=O)nc4c(OCC(F)(F)F)c(-c5c(C)ccc6[nH]ncc56)c(C5CC5)cc34)CC2)C1 [Compound 315] | > 90 | < 300 |
| C=C(F)C(=O)N1CC2(CCN(c3nc(OC4CC5(CCN(CCOC)CC5)C4)nc4c(OCC(F)(F)F)c(-c5c(C)ccc6[nH]ncc56)c(C5CC5)cc34)CC2)C1 [Compound 132] | > 90 | < 300 |
| C=CC(=O)N1CC2(CCN(c3nc(N4CC5(CCN(CCOC)CC5)C4)nc4c(OCC(F)(F)F)c(-c5c(C)ccc6[nH]ncc56)c(C=C)cc34)CC2)C1 [Compound 338] | > 90 | < 300 |
| C=CC(=O)N1CC2(CCN(c3nc(OC4CCN(CCOC)CC4)nc4c(OCC(F)(F)F)c(-c5c(C)ccc6[nH]ncc56)c(C)cc34)CC2)C1 [Compound 13] | > 90 | 300 to 1000 |
| C=C(F)C(=O)N1CC2(CCN(c3nc(OC[C@@H]4COCCN4CCOC)nc4c(OCC(F)(F)F)c(-c5c(C)ccc6[nH]ncc56)c(C5CC5)cc34)CC2)C1 [Compound 118] | > 90 | < 300 |
| C=C(F)C(=O)N1CC2(CCN(c3nc(N4CC(N5CCOCC5)C4)nc4c(OCC(F)(F)F)c(-c5c(C)ccc6[nH]ncc56)c(C5CC5)cc34)CC2)C1 [Compound 147] | > 90 | < 300 |
| C=CC(=O)N1CC2(CCN(c3nc(OC4CCS(=O)(=O)C(C)(C)C4)nc4c(OCC(F)(F)F)c(-c5c(C)ccc6[nH]ncc56)c(C5CC5)cc34)CC2)C1 (stereo not shown) [Compound 311] | > 90 | < 300 |
| C=C(C(=O)N1CC2(CCN(c3nc(OC4CCN(CCOC)CC4)nc4c(OCC(F)(F)F)c(-c5c(C)ccc6[nH]ncc56)c(C5CC5)cc34)CC2)C1)n1ccnc1 [Compound 22] | 50 to 90 | 300 to 1000 |
| C=CC(=O)N1CC2(CCN(c3nc(N4CC(N5C6CCC5CC6)C4)nc4c(OCC(F)(F)F)c(-c5c(C)ccc6[nH]ncc56)c(C5CC5)cc34)CC2)C1 [Compound 270] | > 90 | < 300 |
| C=C(F)C(=O)N1CC2(CCN(c3nc(OC4CCN(CCOC)CC4)nc4c(OCC(F)(F)F)c(-c5c(C)ccc6[nH]nnc56)c(C5CC5)cc34)CC2)C1 [Compound 40] | > 90 | < 300 |
| C=C(F)C(=O)N1CC2(CCN(c3nc(N4CCN(C5CCOCC5)CC4)nc4c(OCC(F)(F)F)c(-c5c(C)ccc6[nH]ncc56)c(C5CC5)cc34)CC2)C1 [Compound 155] | 50 to 90 | 300 to 1000 |
| C=CC(=O)N1CC2(CCN(c3nc(N4CC[C@H](N5CC[C@H](OC)C5)C4)nc4c(OCC(F)(F)F)c(-c5c(C)ccc6[nH]ncc56)c(C5CC5)cc34)CC2)C1 [Compound 195] | > 90 | < 300 |
| C=CC(=O)N1CC2(CCN(c3nc(N4CC5(CC(N6CCC6)C5)C4)nc4c(OCC(F)(F)F)c(-c5c(C)ccc6[nH]ncc56)c(C5CC5)cc34)CC2)C1 [Compound 287] | > 90 | < 300 |
| C=C(F)C(=O)N1CC2(CCN(c3nc(N4CCN(C5COC5)CC4)nc4c(OCC(F)(F)F)c(-c5c(C)ccc6[nH]ncc56)c(C5CC5)cc34)CC2)C1 [Compound 153] | > 90 | < 300 |
